Counter-ions that a name gives are not always drawn.

In general, melting point refers to the temperature, or range, at which the solid turns liquid. `O=C(CCc1ccccc1)N[C@H](Cc1ccc(C(F)(F)F)cc1)[C@@H](O)c1cccc(F)c1` (racemic) [Example 178, N-((1RS,2SR)-2-(3-fluorophenyl)-2-hydroxy-1-((4-(trifluoromethyl)phenyl)methyl)ethyl)-3-phenylpropanamide] gave a melting point of 151 to 152 °C. The result for `O=C(O)CCC(=O)O[C@H](c1ccc(F)cc1)[C@H](Cc1cccc(OC(F)(F)C(F)F)c1)NC(=O)c1cccc2c1C=CCCC2` (racemic) (as salt: succinate) [Example 384, (1RS,2SR)-2-[(6,7-dihydro-5H-benzo[a]cyclohepten-1-ylcarbonyl)amino]-1-(4-fluorophenyl)-3-[3-(1,1,2,2-tetrafluoroethoxy)phenyl]propyl hydrogen succinate] reads 154 to 155 °C; that for `O=C(N[C@H](Cc1ccccc1C(F)(F)F)[C@@H](O)c1ccc(F)cc1)c1cccc2ccccc12` (racemic) [Example 140, N-((1RS,2SR)-2-(4-fluorophenyl)-2-hydroxy-1-((2-(trifluoromethyl)phenyl)methyl)ethyl)-1-naphthalenecarboxamide], 193 to 194 °C; that for `O=C(N[C@H](Cc1ccc(C(F)(F)F)cc1)[C@H](O)c1ccc(F)cc1)c1cccc2ccccc12` (racemic) [Example 26, N-((1RS,2RS)-2-(4-fluorophenyl)-2-hydroxy-1-((4-(trifluoromethyl)phenyl)methyl)ethyl)-1-naphthalenecarboxamide], 134 to 135 °C. As for `CC(C)(C)OC(=O)N[C@H](Cc1cccc(OC(F)(F)C(F)F)c1)[C@@H](O)c1ccc(F)cc1` (racemic) [Example 130, tert-butyl N-[(1RS,2SR)-2-(4-fluorophenyl)-2-hydroxy-1-[3-(1,1,2,2-tetrafluoroethoxy)benzyl]ethyl]carbamate], the melting point is 145 to 146 °C. For the compound `CC(C)(C)OC(=O)N[C@H](Cc1cccc(OC(F)(F)C(F)F)c1)[C@@H](O)c1ccc(F)nc1` (racemic) [Example 223, 1,1-dimethylethyl(1RS,2SR)-2-(6-fluoropyridin-3-yl)-2-hydroxy-1-((3-(1,1,2,2-tetrafluoroethoxy)phenyl)methyl)ethylcarbamate], the melting point fell in the range of 128 to 129 °C. The result for `O=C(N[C@H](Cc1cccc(OC(F)(F)C(F)F)c1)[C@@H](O)c1ccc(-c2ccccc2CO)cc1)c1cccc2c1C=CCCC2` (racemic) [Example 302, N-[(1RS,2SR)-2-[2′-(hydroxymethyl)[1,1′-biphenyl]-4-yl]-2-hydroxy-1-[3-(1,1,2,2-tetrafluoroethoxy)benzyl]ethyl]-6,7-dihydro-5H-benzo[a]cycloheptene-1-carboxamide] reads 152 to 154 °C; that for `CC(C)(C)OC(=O)N[C@H](Cc1cccc(OC(F)(F)C(F)F)c1)[C@@H](O)c1ccc(C=O)cc1` (racemic) [Example 325, tert-butyl N-[(1RS,2SR)-2-(4-formylphenyl)-2-hydroxy-1-[3-(1,1,2,2-tetrafluoroethoxy)benzyl]ethyl]carbamate], 140 to 142 °C. With `O=C(O)CCC(=O)O[C@H](c1ccc(F)cc1)[C@H](Cc1ccc(C(F)(F)F)cc1)NC(=O)c1cccc2c(Cl)cccc12` (racemic) (as salt: succinate) [Example 394, (1RS,2SR)-2-[(5-chloro-1-naphthoyl)amino]-1-(4-fluorophenyl)-3-[4-(trifluoromethyl)phenyl]propyl hydrogen succinate], the melting point was 228 to 229 °C. In the case of `O=C(N[C@H](Cc1ccc(C(F)(F)F)cc1)[C@@H](O)c1ccc(F)cc1)c1cc(C(F)(F)F)cc(C(F)(F)F)c1` (racemic) [Example 86, N-((1RS,2SR)-2-(4-fluorophenyl)-2-hydroxy-1-((4-(trifluoromethyl)phenyl)methyl)ethyl)-3,5-bis(trifluoromethyl)benzamide] it was 150 to 151 °C; in that of `CC(C)(C)c1ccc(C(=O)NC(Cc2ccc(C(F)(F)F)cc2)C(O)c2ccc(F)cc2)cc1` (racemic) [Example 19, 4-tert-butyl-N-[2-(4-fluorophenyl)-2-hydroxy-1-[[4-(trifluoromethyl)phenyl]methyl]ethyl]benzamide], 58 °C. In the case of `CC(C)(C)Oc1ccc(C[C@@H](NC(=O)c2cccc3c2C=CCCC3)[C@@H](O)c2cccc(Cl)c2)cc1` (racemic) [Example 276, N-[(1RS,2SR)-1-(4-tert-butoxybenzyl)-2-(3-chlorophenyl)-2hydroxyethyl]-6,7-dihydro-5H-benzo[a][7]annulene-1-carboxamide] it was 180 to 181 °C; in that of `O=C(N[C@H](Cc1cccc(OC(F)(F)C(F)F)c1)[C@@H](O)c1ccc(OCc2ccc(F)cc2)cc1)c1cccc2c1C=CCCC2` (racemic) [Example 245, N-{(1RS,2SR)-2-{4-[(4-fluorobenzyl)oxy]phenyl}-2-hydroxy-1-[3-(1,1,2,2-tetrafluoroethoxy)benzyl]ethyl}-6,7-dihydro-5H-benzo[a][7]annulene-1-carboxamide], 144 to 145 °C. On to `O=C(N[C@H](Cc1ccc(C(F)(F)F)cc1)[C@@H](O)c1ccc(F)cc1)c1csc2ccccc12` (racemic) [Example 46, N-[(1RS,2SR)-2-(4-fluorophenyl)-2-hydroxy-1-[4-(trifluoromethyl)benzyl]ethyl]-1-benzothiophene-3-carboxamide], for which the melting point lay within 188 to 189 °C.

Take `N#CC(c1ccc([C@H](O)[C@@H](Cc2cccc(OC(F)(F)C(F)F)c2)NC(=O)c2cccc3c2C=CCCC3)cc1)N1CCCCC1` (mixture of isomers) [Example 327, N-[(1RS,2SR)-2-[4-[cyano(piperidino)methyl]phenyl]-2-hydroxy-1-[3-(1,1,2,2-tetrafluoroethoxy)benzyl]ethyl]-6,7-dihydro-5H-benzo[a]cycloheptene-1-carboxamide]: the melting point was 152 to 154 °C. `O=C(NC(Cc1ccc(C(F)(F)F)cc1)C(O)c1ccc(F)cc1)c1ccc(C(F)(F)F)cc1` (racemic) [Example 12, N-[2-(4-fluorophenyl)-2-hydroxy-1-[[4-(trifluoromethyl)phenyl]methyl]ethyl]-4-(trifluoromethyl)benzamide] yielded a melting point of 167 to 169 °C. In the case of `O=C(N[C@H](Cc1ccc(C(F)(F)F)cc1)[C@@H](O)c1ccc(F)cc1)c1ccc([C@@H]2O[C@@H]2c2ccc(Cl)cc2)cc1` (racemic) [Example 93, 4-[cis-3-(4-chlorophenyl)oxiran-2-yl]-N-[(1RS,2SR)-2-(4-fluorophenyl)-2-hydroxy-1-[4-(trifluoromethyl)benzyl]ethyl]benzenecarboxamide] it was 162 to 166 °C; in that of `CC(C)(C)OC(=O)N[C@H](Cc1cccc(OC(F)(F)C(F)F)c1)[C@@H](O)c1cccc(F)n1` (racemic) [Example 221, 1,1-dimethylethyl(1RS,2RS)-2-(6-fluoropyridin-2-yl)-2-hydroxy-1-((3-(1,1,2,2-tetrafluoroethoxy)phenyl)methyl)ethylcarbamate], 140 to 141 °C; in that of `O=C(N[C@H](Cc1ccc(C(F)(F)F)cc1)[C@@H](O)c1ccc(F)cc1)c1cccc2c(Cl)cccc12` (racemic) [Example 37, 5-chloro-N-[(1RS,2SR)-2-(4-fluorophenyl)-2-hydroxy-1-[4-(trifluoromethyl)benzyl]ethyl]naphthalene-1-carboxamide], 211 to 212 °C. In the case of `COC(=O)CCC(=O)O[C@H](c1ccc(F)cc1)[C@H](Cc1cccc(OC(F)(F)C(F)F)c1)NC(=O)c1cccc2c1C=CCCC2` (racemic) (as salt: succinate) [Example 383, (1RS,2SR)-2-[(6,7-dihydro-5H-benzo[a]cyclohepten-1-ylcarbonyl)amino]-1-(4-fluorophenyl)-3-[3-(1,1,2,2-tetrafluoroethoxy)phenyl]propyl methyl succinate] it was 170 to 171 °C; in that of `O=C(N[C@H](Cc1ccc(C(F)(F)F)cc1)[C@@H](O)c1ccc(F)cc1)c1cccc2c([N+](=O)[O-])cccc12` (racemic) [Example 40, N-[(1RS,2SR)-2-(4-fluorophenyl)-2-hydroxy-1-[4-(trifluoromethyl)benzyl]ethyl]-5-nitronaphthalene-1-carboxamide], 211 to 214 °C; in that of `O=C(N[C@H](Cc1ccc2c(c1)OC(F)(F)O2)[C@@H](O)c1ccc(F)cc1)c1ccc(F)c2ccccc12` (racemic) [Example 167, N-[(1RS,2SR)-1-[(2,2-difluoro-1,3-benzodioxol-5-yl)methyl]-2-(4-fluorophenyl)-2-hydroxyethyl]-4-fluoronaphthalene-1-carboxamide], 219 to 220 °C. The result for `O=C(CC(F)(F)F)N[C@H](Cc1ccc(C(F)(F)F)cc1)[C@@H](O)c1ccc(F)cc1` (racemic) [Example 109, N-[(1RS,2SR)-2-(4-fluorophenyl)-2-hydroxy-1-[4-(trifluoromethyl)benzyl]ethyl]-3,3,3-trifluoropropionamide] reads 179 to 180 °C; that for `O=C(N[C@H](Cc1cccc(OCC(F)(F)C(F)F)c1)[C@@H](O)c1ccc(F)cc1)c1ccc(F)c2ccccc12` (racemic) [Example 172, N-((1RS,2SR)-2-(4-fluorophenyl)-2-hydroxy-1-((3-(2,2,3,3-tetrafluoropropyloxy)phenyl)methyl)ethyl)-4-fluoro-1-naphthalenecarboxamide], 160 to 161 °C. With `O=C(N[C@H](Cc1ccc(C(F)F)cc1)[C@@H](O)c1ccc(F)cc1)c1ccc(F)c2ccccc12` (racemic) [Example 165, N-[(1RS,2SR)-1-[4-(difluoromethyl)benzyl]-2-(4-fluorophenyl)-2-hydroxyethyl]-4-fluoronaphthalene-1-carboxamide], the melting point fell in the range of 212 to 213 °C. In the case of `O=C(N[C@H](Cc1cccc(OC(F)(F)C(F)F)c1)[C@@H](O)c1ccc(-c2ccccc2)cc1)c1cccc2c1C=CCCC2` (racemic) [Example 291, N-[(1RS,2SR)-2-(1,1′-biphenyl-4-yl)-2-hydroxy-1-[3-(1,1,2,2-tetrafluoroethoxy)benzyl]ethyl]-6,7-dihydro-5H-benzo[a]cycloheptene-1-carboxamide] it was 122 to 123 °C.

The record behind these values is patent US6982348B2, “Aminoethanol derivatives” (Takeda Pharmaceutical Company Limited, priority 2001, dated 2006).
